In publication PMC3579217 (Journal of molecular biology, 2012):

Molecular target: myrMA (myristoylated M-PMV matrix protein) (Mason-Pfizer monkey virus, UniProt P07567)
Test: 1H/[…] HSQC NMR titration
Type: binding

Sequence of myrMA (myristoylated M-PMV matrix protein) (P07567 2-118): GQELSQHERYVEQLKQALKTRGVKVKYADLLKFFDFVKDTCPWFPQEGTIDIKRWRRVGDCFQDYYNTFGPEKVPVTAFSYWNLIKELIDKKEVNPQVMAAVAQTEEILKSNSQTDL

## CCCCCCCC(=O)OC[C@H](COP(=O)(O)O[C@@H]1[C@H](O)[C@H](O)[C@@H](OP(=O)(O)O)[C@H](OP(=O)(O)O)[C@H]1O)OC(=O)CCCCCCC [C8-PI(4,5)P2]
  Kd: 92.8 ± 7.5 µM
